Measurements from PubChem BioAssay (NCI).
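Method: 48-hour compound exposure of cells in 96-well plates, five concentrations, linear interpolation of endpoints. The concentration for full growth arrest is given as TGI.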

Key:
Test in all cases: growth of human tumour cells (NCI), 48 h
[1] = tested on: 786-0 renal
[2] = tested on: A498 renal
[3] = tested on: A549 NSCLC
[4] = tested on: ACHN renal
[5] = tested on: CAKI-1 renal
[6] = tested on: CCRF-CEM leukemia
[7] = tested on: COLO 205 colon
[8] = tested on: DU-145 prostate
[9] = tested on: EKVX NSCLC
[10] = tested on: HCC-2998 colon
[11] = tested on: HCT-116 colon
[12] = tested on: HCT-15 colon
[13] = tested on: HL-60(TB) leukemia
[14] = tested on: HOP-62 NSCLC
[15] = tested on: HOP-92 NSCLC
[16] = tested on: HS 578T breast
[17] = tested on: HT29 colon
[18] = tested on: IGROV1 ovarian
[19] = tested on: K-562 leukemia
[20] = tested on: KM12 colon
[21] = tested on: LOX IMVI melanoma
[22] = tested on: MALME-3M melanoma
[23] = tested on: MDA-MB-231 breast
[24] = tested on: MDA-MB-435
[25] = tested on: MDA-N
[26] = tested on: MOLT-4 leukemia
[27] = tested on: NCI-H226 lung
[28] = tested on: NCI-H23 lung
[29] = tested on: NCI-H460 lung
[30] = tested on: NCI-H522 lung
[31] = tested on: NCI/ADR-RES ovarian
[32] = tested on: OVCAR-4 ovarian
[33] = tested on: OVCAR-5 ovarian
[34] = tested on: OVCAR-8 ovarian
[35] = tested on: PC-3 prostate
[36] = tested on: RPMI-8226 leukemia
[37] = tested on: RXF 393 renal
[38] = tested on: SF-268 CNS
[39] = tested on: SF-295 CNS
[40] = tested on: SF-539 CNS
[41] = tested on: SK-MEL-2 melanoma
[42] = tested on: SK-MEL-28 melanoma
[43] = tested on: SK-MEL-5 melanoma
[44] = tested on: SK-OV-3 ovarian
[45] = tested on: SN12C renal
[46] = tested on: SNB-19 CNS
[47] = tested on: SNB-75 CNS
[48] = tested on: SR leukemia
[49] = tested on: SW-620 colon
[50] = tested on: T-47D breast
[51] = tested on: TK-10 renal
[52] = tested on: U251 CNS
[53] = tested on: UACC-257 melanoma
[54] = tested on: UACC-62 melanoma
[55] = tested on: UO-31 renal
[56] = tested on: M14 melanoma
[57] = tested on: MCF7 breast
[58] = tested on: OVCAR-3 ovarian
[59] = tested on: BT-549 breast

N=C(N)SCc1ccc(N=C=S)cc1
TGI [1]: 26.7 µM
TGI [2]: 26.9 µM
TGI [3]: 30.5 µM
TGI [4]: 26.1 µM
TGI [5]: 25.4 µM
TGI [6]: > 100 µM
TGI [7]: 28.2 µM
TGI [8]: 29.5 µM
TGI [9]: 35.5 µM
TGI [10]: 30.4 µM
TGI [11]: 27.2 µM
TGI [12]: 24.6 µM
TGI [13]: 35.9 µM
TGI [14]: 32.5 µM
TGI [15]: 24.2 µM
TGI [16]: 42.1 µM
TGI [17]: 40.3 µM
TGI [18]: 26.7 µM
TGI [19]: 44 µM
TGI [20]: 27.6 µM
TGI [21]: 28 µM
TGI [22]: 27.4 µM
TGI [23]: 20.1 µM
TGI [24]: 26 µM
TGI [25]: 26.6 µM
TGI [26]: > 100 µM
TGI [27]: 34.6 µM
TGI [28]: 27.5 µM
TGI [29]: 30.4 µM
TGI [30]: 21.6 µM
TGI [31]: 43 µM
TGI [32]: 27.4 µM
TGI [33]: 27.6 µM
TGI [34]: 31.6 µM
TGI [35]: 30.1 µM
TGI [36]: > 100 µM
TGI [37]: 17.8 µM
TGI [38]: 35.1 µM
TGI [39]: 31.2 µM
TGI [40]: 27.3 µM
TGI [41]: 23 µM
TGI [42]: 28.7 µM
TGI [43]: 27.2 µM
TGI [44]: 31.1 µM
TGI [45]: 28.5 µM
TGI [46]: 26.7 µM
TGI [47]: 21.9 µM
TGI [48]: > 100 µM
TGI [49]: 29.1 µM
TGI [50]: 34.9 µM
TGI [51]: 28.1 µM
TGI [52]: 29 µM
TGI [53]: 25.8 µM
TGI [54]: 23.7 µM
TGI [55]: 25 µM

CS/C=C\C(=O)O[C@H]1C[C@@H]2[C@@H](O)c3occ(C)c3C[C@]2(C)[C@@H](C)C1
TGI [1]: 30.2 µM
TGI [4]: 63.2 µM
TGI [5]: > 100 µM
TGI [6]: > 100 µM
TGI [7]: 35.6 µM
TGI [8]: 90.3 µM
TGI [9]: > 100 µM
TGI [10]: 85.7 µM
TGI [11]: 31.4 µM
TGI [12]: 95.1 µM
TGI [13]: 43.8 µM
TGI [14]: 40.9 µM
TGI [15]: 65.6 µM
TGI [16]: 71.5 µM
TGI [17]: 51.8 µM
TGI [18]: 40.3 µM
TGI [19]: 47 µM
TGI [20]: > 100 µM
TGI [21]: 32.8 µM
TGI [56]: 38.5 µM
TGI [22]: 35.6 µM
TGI [57]: 57.4 µM
TGI [23]: 41.7 µM
TGI [24]: 43.6 µM
TGI [25]: 47.2 µM
TGI [26]: 56.3 µM
TGI [27]: 28.7 µM
TGI [28]: 85.8 µM
TGI [29]: 60.7 µM
TGI [30]: 71.7 µM
TGI [31]: 42.3 µM
TGI [58]: 31 µM
TGI [32]: 51.6 µM
TGI [33]: > 100 µM
TGI [34]: 50.4 µM
TGI [35]: > 100 µM
TGI [36]: 79.9 µM
TGI [37]: 47.2 µM
TGI [38]: 82.3 µM
TGI [39]: 77 µM
TGI [40]: 37.7 µM
TGI [42]: 35.9 µM
TGI [43]: 28.2 µM
TGI [44]: > 100 µM
TGI [45]: 30.2 µM
TGI [46]: > 100 µM
TGI [48]: 99.4 µM
TGI [49]: > 100 µM
TGI [50]: 76.9 µM
TGI [51]: > 100 µM
TGI [52]: 7.93 µM
TGI [53]: 30.5 µM
TGI [54]: 37.9 µM

COc1ccc(N(C(=O)NCCO)c2ccccc2)cc1
TGI [1]: > 100 µM
TGI [2]: > 100 µM
TGI [3]: > 100 µM
TGI [4]: > 100 µM
TGI [5]: > 100 µM
TGI [6]: > 100 µM
TGI [7]: > 100 µM
TGI [8]: > 100 µM
TGI [9]: > 100 µM
TGI [10]: > 100 µM
TGI [11]: > 100 µM
TGI [12]: > 100 µM
TGI [13]: > 100 µM
TGI [14]: > 100 µM
TGI [15]: > 100 µM
TGI [16]: > 100 µM
TGI [17]: > 100 µM
TGI [18]: > 100 µM
TGI [19]: > 100 µM
TGI [20]: > 100 µM
TGI [21]: > 100 µM
TGI [56]: > 100 µM
TGI [22]: > 100 µM
TGI [57]: > 100 µM
TGI [23]: > 100 µM
TGI [24]: > 100 µM
TGI [25]: > 100 µM
TGI [26]: > 100 µM
TGI [27]: > 100 µM
TGI [28]: > 100 µM
TGI [29]: > 100 µM
TGI [30]: > 100 µM
TGI [31]: > 100 µM
TGI [58]: > 100 µM
TGI [32]: > 100 µM
TGI [33]: > 100 µM
TGI [34]: > 100 µM
TGI [35]: > 100 µM
TGI [36]: > 100 µM
TGI [37]: > 100 µM
TGI [38]: > 100 µM
TGI [39]: > 100 µM
TGI [40]: > 100 µM
TGI [41]: > 100 µM
TGI [42]: > 100 µM
TGI [43]: > 100 µM
TGI [44]: > 100 µM
TGI [45]: > 100 µM
TGI [46]: > 100 µM
TGI [47]: > 100 µM
TGI [48]: > 100 µM
TGI [49]: > 100 µM
TGI [50]: > 100 µM
TGI [51]: > 100 µM
TGI [52]: > 100 µM
TGI [53]: > 100 µM
TGI [54]: > 100 µM
TGI [55]: > 100 µM

NC(=O)C1N=NSC1NC(=O)c1ccc([N+](=O)[O-])cc1 (stereo not drawn)
TGI [1]: > 100 µM
TGI [3]: > 100 µM
TGI [4]: > 100 µM
TGI [59]: > 100 µM
TGI [5]: > 100 µM
TGI [6]: > 100 µM
TGI [7]: > 100 µM
TGI [8]: > 100 µM
TGI [9]: > 100 µM
TGI [10]: > 100 µM
TGI [11]: > 100 µM
TGI [12]: > 100 µM
TGI [14]: > 100 µM
TGI [16]: > 100 µM
TGI [17]: > 100 µM
TGI [18]: > 100 µM
TGI [19]: > 100 µM
TGI [20]: > 100 µM
TGI [56]: > 100 µM
TGI [22]: > 100 µM
TGI [57]: > 100 µM
TGI [23]: > 100 µM
TGI [24]: > 100 µM
TGI [25]: > 100 µM
TGI [26]: > 100 µM
TGI [27]: > 100 µM
TGI [28]: > 100 µM
TGI [29]: > 100 µM
TGI [31]: > 100 µM
TGI [58]: > 100 µM
TGI [32]: > 100 µM
TGI [33]: > 100 µM
TGI [34]: > 100 µM
TGI [35]: > 100 µM
TGI [36]: > 100 µM
TGI [37]: > 100 µM
TGI [38]: > 100 µM
TGI [39]: > 100 µM
TGI [41]: 65 µM
TGI [42]: > 100 µM
TGI [43]: 69.8 µM
TGI [44]: > 100 µM
TGI [45]: > 100 µM
TGI [46]: > 100 µM
TGI [47]: > 100 µM
TGI [49]: > 100 µM
TGI [50]: > 100 µM
TGI [51]: > 100 µM
TGI [52]: > 100 µM
TGI [53]: > 100 µM
TGI [54]: > 100 µM
TGI [55]: > 100 µM
